# Assay results as given in patent US20180021429A1, “ANTICANCER AGENTS OR ANTIMETASTATIC AGENTS USING FSTL1 AND COMBINATION DRUG THEREOF” (PHARMA FOODS INTERNATIONAL CO., LTD., priority 2015, published 2018).
# System: mouse lung cancer 3LL
# Assay: Combined use with CPA in subcutaneously mouse lung cancer 3LL-transplanted model (Example 35)
# Format: in vivo
# Conditions: CPA 2 mg/mouse/day i.p. days 4-7; anti-FSTL1 antibody 5 mg/kg i.p. days 8 and 11
structure (smiles),measurement,value
"O=P1(N(CCCl)CCCl)NCCCO1 (stereo not shown) [CPA, cyclophosphamide]",subcutaneous tumor growth / antitumor effect,strongly suppressed subcutaneous tumor growth
